In US20190161736A1, “CELL CULTURE” (National University of Singapore, priority 2016, published 2019):
Like-named read-outs stand apart in the source and are kept apart here.

What was measured:
[1] = tested on: MCF-7 breast cancer cell line clusters; experiment: Microwell-based CTC cluster assay, doxorubicin screening on MCF-7 clusters (live/dead staining); assay type: cell-based; details: Homo sapiens, MCF7, normoxia, 72 hrs exposure from Day 3, viability by Calcein-AM/EtBr
Protocol: Cell Culture of MCF-7 Cancer Cell Line MCF-7 (HTB-22TM, ATCC, USA), a human breast adenocarcinoma cell line, was first used to mimic CTC cluster formation. Cell lines were maintained in supplemented high-glucose Dulbecco's modified Eagle's medium (DMEM) (Invitrogen, USA) with 10% fetal bovine serum (FBS) (Invitrogen, USA) together with 1% penicillin-streptomycin (Invitrogen, USA). Cultures were kept at 37° C. in a humidified atmosphere containing 5% (v/v) CO2 till 80% confluence. Cells were cultured in sterile 25 cm^2 flasks (BD Bioscience, USA) and sub-cultivated two times a week with media replaced every 48 h. Sub-confluent monolayers were dissociated using 0.01% otrypsin and 5.3 mM EDTA solution (Lonza, Switzerland).
The closed system was then incubated at 37° C., 5% CO2 till drug treatment at Day 3 or Day 11 for MCF-7 cultures and clinical sample cultures respectively.
A stock solution was prepared in 100% DMSO and subsequently was diluted in supplemented DMEM (1 μl to 1 ml of media), resulting in ˜0.1% of DMSO concentration (1 μM drug concentration), which has negligible effects on cells.
To establish the IC50 values, z-stacks images of 25 microwells from each channel were obtained with a confocal microscope.

MCF-7 monolayer cultures = details: monolayer cultures with lower cell counts, <10k cells per ml; read-out: IC50 value (previous studies); cited from earlier work
[2] = tested on: clinical human primary cancer cells cultured from blood samples (CD45- cells); experiment: Microwell-based CTC cluster assay, doxorubicin screening on clusters cultured from breast cancer patient blood samples; details: for IC50 / viability at 1 µM: Homo sapiens; for IC50: 72 hrs exposure; for viability at 1 µM: 72 hrs

Question: Which results are given for COc1cccc2c1C(=O)c1c(O)c3c(c(O)c1C2=O)C[C@@](O)(C(=O)CO)C[C@@H]3O[C@H]1C[C@H](N)[C@H](O)[C@H](C)O1 [doxorubicin, Doxorubicin]?
Answer: IC50 [1]: 780 ± 20 nM; IC50 (MCF-7 monolayer cultures): ~500 nM; IC50 ([2]; 72 h, read-out: IC50 value, sample CES021, Post treatment): > 1000 nM; IC50 ([2]; 72 h, read-out: IC50 value, sample CES053, Post treatment): 340 nM; IC50 ([2]; 72 h, read-out: IC50 value, sample P2B28, Post treatment): > 1000 nM; IC50 ([2]; 72 h, read-out: IC50 value, sample P2B29, Post treatment): 860 nM; viability at 1 µM ([2]; 72 h, read-out: Percentage of viable CD45-cells, CES21 Post-treatment, 1.6% of drug (1 μM)): 96.4%; viability at 1 µM ([2]; 72 h, read-out: Percentage of viable CD45-cells, CES21 Post-treatment, 10.9% of drug (1 μM)): 94.9%; viability at 1 µM ([2]; 72 h, read-out: Percentage of viable CD45-cells, CES21 Post-treatment, 34.4% of drug (1 μM)): 92%; viability at 1 µM ([2]; 72 h, read-out: Percentage of viable CD45-cells, CES21 Post-treatment, 65.6% of drug (1 μM)): 78.6%; viability at 1 µM ([2]; 72 h, read-out: Percentage of viable CD45-cells, CES21 Post-treatment, 89.1% of drug (1 μM)): 71.1%; viability at 1 µM ([2]; 72 h, read-out: Percentage of viable CD45-cells, CES21 Post-treatment, 98.4% of drug (1 μM)): 66.9%; viability at 1 µM ([2]; 72 h, read-out: Percentage of viable CD45-cells, CES21 Post-treatment, 100.0% of drug (1 μM)): 67.9%; viability at 1 µM ([2]; 72 h, read-out: Percentage of viable CD45-cells, CES053 Post-treatment, 1.6% of drug (1 μM)): 51.7%; viability at 1 µM ([2]; 72 h, read-out: Percentage of viable CD45-cells, CES053 Post-treatment, 10.9% of drug (1 μM)): 51.4%; viability at 1 µM ([2]; 72 h, read-out: Percentage of viable CD45-cells, CES053 Post-treatment, 34.4% of drug (1 μM)): 48%; viability at 1 µM ([2]; 72 h, read-out: Percentage of viable CD45-cells, CES053 Post-treatment, 65.6% of drug (1 μM)): 52.2%; viability at 1 µM ([2]; 72 h, read-out: Percentage of viable CD45-cells, CES053 Post-treatment, 89.1% of drug (1 μM)): 42.8%; viability at 1 µM ([2]; 72 h, read-out: Percentage of viable CD45-cells, CES053 Post-treatment, 98.4% of drug (1 μM)): 41%; viability at 1 µM ([2]; 72 h, read-out: Percentage of viable CD45-cells, CES053 Post-treatment, 100.0% of drug (1 μM)): 39.8%; viability at 1 µM ([2]; 72 h, read-out: Percentage of viable CD45-cells, P2B28 Post-treatment, 1.6% of drug (1 μM)): 39.3%; viability at 1 µM ([2]; 72 h, read-out: Percentage of viable CD45-cells, P2B28 Post-treatment, 10.9% of drug (1 μM)): 32.6%; viability at 1 µM ([2]; 72 h, read-out: Percentage of viable CD45-cells, P2B28 Post-treatment, 34.4% of drug (1 μM)): 39.2%; viability at 1 µM ([2]; 72 h, read-out: Percentage of viable CD45-cells, P2B28 Post-treatment, 65.6% of drug (1 μM)): 28.8%; viability at 1 µM ([2]; 72 h, read-out: Percentage of viable CD45-cells, P2B28 Post-treatment, 89.1% of drug (1 μM)): 27.6%; viability at 1 µM ([2]; 72 h, read-out: Percentage of viable CD45-cells, P2B28 Post-treatment, 98.4% of drug (1 μM)): 24.4%; viability at 1 µM ([2]; 72 h, read-out: Percentage of viable CD45-cells, P2B28 Post-treatment, 100.0% of drug (1 μM)): 0%; viability at 1 µM ([2]; 72 h, read-out: Percentage of viable CD45-cells, P2B29 Post-treatment, 1.6% of drug (1 μM)): 73.6%; viability at 1 µM ([2]; 72 h, read-out: Percentage of viable CD45-cells, P2B29 Post-treatment, 10.9% of drug (1 μM)): 56.2%; viability at 1 µM ([2]; 72 h, read-out: Percentage of viable CD45-cells, P2B29 Post-treatment, 34.4% of drug (1 μM)): 18.5%; viability at 1 µM ([2]; 72 h, read-out: Percentage of viable CD45-cells, P2B29 Post-treatment, 65.6% of drug (1 μM)): 7.7%; viability at 1 µM ([2]; 72 h, read-out: Percentage of viable CD45-cells, P2B29 Post-treatment, 89.1% of drug (1 μM)): 4.1%; viability at 1 µM ([2]; 72 h, read-out: Percentage of viable CD45-cells, P2B29 Post-treatment, 98.4% of drug (1 μM)): 1.1%; viability at 1 µM ([2]; 72 h, read-out: Percentage of viable CD45-cells, P2B29 Post-treatment, 100.0% of drug (1 μM)): 0.4%; IC50 ([2]; read-out: IC50 value, sample CTB039, Pre-treatment): 850 nM; IC50 ([2]; read-out: IC50 value, sample P2B29, Pre-treatment): 940 ± 40 nM; viability at 1 µM ([2]; read-out: Percentage of viable CD45-cells, CTB039 Pre-treatment, 1.6% of drug (1 μM)): 85.5%; viability at 1 µM ([2]; read-out: Percentage of viable CD45-cells, CTB039 Pre-treatment, 10.9% of drug (1 μM)): 81.6%; viability at 1 µM ([2]; read-out: Percentage of viable CD45-cells, CTB039 Pre-treatment, 34.4% of drug (1 μM)): 69.7%; viability at 1 µM ([2]; read-out: Percentage of viable CD45-cells, CTB039 Pre-treatment, 65.6% of drug (1 μM)): 58.3%; viability at 1 µM ([2]; read-out: Percentage of viable CD45-cells, CTB039 Pre-treatment, 89.1% of drug (1 μM)): 48.3%; viability at 1 µM ([2]; read-out: Percentage of viable CD45-cells, CTB039 Pre-treatment, 98.4% of drug (1 μM)): 44.2%; viability at 1 µM ([2]; read-out: Percentage of viable CD45-cells, CTB039 Pre-treatment, 100.0% of drug (1 μM)): 40.8%; viability at 1 µM ([2]; read-out: Percentage of viable CD45-cells, P2B29 Pre-treatment, 1.6% of drug (1 μM)): 96.6%; viability at 1 µM ([2]; read-out: Percentage of viable CD45-cells, P2B29 Pre-treatment, 10.9% of drug (1 μM)): 86.4%; viability at 1 µM ([2]; read-out: Percentage of viable CD45-cells, P2B29 Pre-treatment, 34.4% of drug (1 μM)): 26.2%; viability at 1 µM ([2]; read-out: Percentage of viable CD45-cells, P2B29 Pre-treatment, 65.6% of drug (1 μM)): 3.9%; viability at 1 µM ([2]; read-out: Percentage of viable CD45-cells, P2B29 Pre-treatment, 89.1% of drug (1 μM)): 2.6%; viability at 1 µM ([2]; read-out: Percentage of viable CD45-cells, P2B29 Pre-treatment, 98.4% of drug (1 μM)): 0.7%; viability at 1 µM ([2]; read-out: Percentage of viable CD45-cells, P2B29 Pre-treatment, 100.0% of drug (1 μM)): 0.4%; average correlation coefficient, percentage of microwells with cluster vs concentration of doxorubicin ([2]; clinical sample cultures, FIG. 15A): −0.71; proportion of microwells with presence of macrophage-like cells vs drug concentration ([2]; clinical sample cultures, FIG. 15B): did not seem to correlate with drug concentration
